Like-named read-outs stand apart in the source and are kept apart here.
How the values were obtained:
ABCG1 = ABCG1 gene expression by real-time RT-PCR in aortic smooth muscle cells; format: cell-based, human; details: normalized with HPRT, n=1 or 2
Experimental: (§1) The cells, grown to confluence according to the supplier's instructions (Lonza), were serum-depleted, pre-treated for 1h with increasing concentrations of ACT-333679 (i.e. MRE-269), and incubated in the presence of 10ng/mL PDGF-BB for 24h for Figures 4 and 5, and 6h for Figure 6. The treated cells were then incubated during 4 hours with 10µg/mL of fluorescently labelled DiI-oxLDL (Figures 4 and 5) and their ability to internalise the oxLDL was analysed by fluorescence microscopy (Figure 4) and FACS (Figure 5). FACS allows precise quantification of the number of fluorescent cells (i.e. those that have incorporated fluorescent oxLDL) and the intensity of the incorporated fluorescence per cell (i.e. the quantity of incorporated oxLDL/cell). Nuclei were stained with 4'-6'diamidino-2-phenylindol (DAPI) for analysis by fluorescence microscopy (Figure 4) or cells were directly analysed by flow cytometry (Figure 5). A detailed description of the protocol and apparatus used is given in the art.
(§2) Regarding Figure 4, representative images of the analysis of 5 fields examined in two experiments (n=2). […]
(§3) The expression of genes encoding transporters involved in cholesterol efflux (ABCA1: ATP-binding cassette A1 and ABCG1: ATP-binding cassette subfamily G member 1) was measured by real-time RT-PCR. […]

[1] = system: human aortic smooth muscle cells; assay: Internalisation of DiI-oxLDL by aortic smooth muscle cells (fluorescence microscopy and FACS); format: cell-based; details: 1h pre-treatment, DiI-oxLDL 10 µg/mL 4 hours, read-out: concentration from which incorporation of oxLDL is inhibited
ABCA1 = ABCA1 gene expression by real-time RT-PCR in aortic smooth muscle cells; format: cell-based, human; details: normalized with HPRT, n=1 or 2
Experimental: as §1, §2, §3

[2] = system: vascular smooth muscle cells-derived foam cells; assay: Radioisotopic cholesterol efflux assay ([3H]-cholesterol-loaded VSMCs); format: cell-based, human
Source text: Primary cultures of aortic smooth muscle cells (AoSMC) obtained from a human diabetic and obese donor ([…]) were purchased from Lonza (D-AoSMC CloneticsTM). Cells were cultivated on 12-well plates at 50 000 cells/well in a growth medium composed of the Smooth Muscle Basal Medium (SmBM, Lonza) supplemented with 0.2% hEGF, 0.1% insulin, 0.2% hFGF-B, 5% Fetal Bovine Serum (FBS) and 0.1% gentamicin/amphotericin-B (SingleQuots, Lonza, concentrations not specified) according to Lonza's instructions. The foam phenotype was induced when cells reached a subconfluent density. During all the experiments, cells were maintained within an atmosphere enriched with 5% CO2 at 37°C and were used at passages ranging from 6 to 9. […]
Cholesterol efflux assay was performed as previously described by using [3H]-cholesterol-loaded VSMCs. […] Fractional cholesterol efflux, expressed as a percentage, was calculated as the amount of the radioactivity recovered in the cleared medium divided by the total radioactivity (radioactivity in the medium + radioactivity in the cells). Radioactivity in the cells was obtained after the lipid extraction in a mixture of hexane isopropanol (3:2 v/v) and was determined by liquid scintillation counting on a Wallac Trilux 1450 Microbeta scintillation counter (PerkinElmer, MA, USA). […]

[3] = pre-treated 1h, then PDGF-BB 10 ng/mL 6h

CC(C)N(CCCCOCC(=O)O)c1cnc(-c2ccccc2)c(-c2ccccc2)n1 [MRE-269]
Expression of PDGF-BB-inhibited ABCG1 gene (ABCG1; [3]): partially restored
minimal effective concentration ([1]; Homo sapiens, basal incorporation): ≥ 0.005 µM
minimal effective concentration ([1]; incorporation stimulated by PDGF-BB 10 ng/mL 24h): ≥ 0.005 µM
Expression of PDGF-BB-inhibited ABCA1 gene (ABCA1; [3]): partially restored
Basal cholesterol efflux ([2]; MRE-269 100 nM alone, no rHDL, basal efflux about 2.6 %): not modified
cholesterol efflux ([2]; MRE-269 100 nM together with rHDL 20 µg/mL, 24h, n=6): 20.21%

CC(C)N(CCCCOCC(=O)NS(C)(=O)=O)c1cnc(-c2ccccc2)c(-c2ccccc2)n1 [Selexipag, 2-{4-[(5,6-diphenylpyrazin-2-yl)(isopropyl)amino]butoxy}-N-(methylsulfonyl)acetamide]
basal expression of gene encoding ABCG1 (ABCG1; basal, no PDGF-BB): increased
basal expression of gene encoding ABCA1 (ABCA1; basal, no PDGF-BB): increased

Source: patent EP4595961A1, “SELEXIPAG FOR USE IN THE TREATMENT AND/OR PREVENTION OF ATHEROSCLEROSIS” (SORBONNE UNIVERSITE, priority 2024, dated 2025)
